From patent US9260417B2, “Therapeutic methods and compositions involving allosteric kinase inhibition” (AMITECH THERAPEUTIC SOLUTIONS, INC., priority 2010, dated 2016)

Assays:
[1] = molecular target: ARK5 (Homo sapiens (Human), UniProt O60285); assay: KINOMEscan competitive binding assay; conditions: 10 uM
Excerpt: (§1) In vitro kinase screen and competitive binding assay. Sorafenib as well as test compounds were submitted to Invitrogen and screened using their SelectScreen™ Profiling Service.

[2] = molecular target: BMX (Homo sapiens (Human), UniProt P51813); assay: KINOMEscan competitive binding assay; conditions: 10 uM
Sequence of BMX (P51813 whole entry): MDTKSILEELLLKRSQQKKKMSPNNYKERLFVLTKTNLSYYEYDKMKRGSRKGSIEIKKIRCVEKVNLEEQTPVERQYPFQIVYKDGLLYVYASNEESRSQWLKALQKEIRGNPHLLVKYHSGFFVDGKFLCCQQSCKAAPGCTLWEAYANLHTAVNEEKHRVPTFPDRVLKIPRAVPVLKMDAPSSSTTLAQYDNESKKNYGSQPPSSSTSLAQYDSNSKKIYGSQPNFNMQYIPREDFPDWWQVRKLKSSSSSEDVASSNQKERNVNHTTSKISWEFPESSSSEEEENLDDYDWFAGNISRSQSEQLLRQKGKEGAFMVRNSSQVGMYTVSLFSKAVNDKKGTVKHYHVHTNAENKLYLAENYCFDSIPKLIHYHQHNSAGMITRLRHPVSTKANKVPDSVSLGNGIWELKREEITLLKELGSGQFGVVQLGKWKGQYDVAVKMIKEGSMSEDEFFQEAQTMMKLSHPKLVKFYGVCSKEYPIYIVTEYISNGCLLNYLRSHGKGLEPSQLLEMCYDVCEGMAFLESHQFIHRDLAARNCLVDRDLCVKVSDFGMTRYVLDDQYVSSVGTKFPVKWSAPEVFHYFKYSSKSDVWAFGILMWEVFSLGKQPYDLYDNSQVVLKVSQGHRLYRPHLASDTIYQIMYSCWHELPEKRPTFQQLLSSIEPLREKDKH
Excerpt: as §1

[3] = molecular target: BRAF(V600E) (Homo sapiens (Human), UniProt P15056, V600E); assay: KINOMEscan competitive binding assay; conditions: 10 uM
Excerpt: as §1

[4] = molecular target: CDK3 (Homo sapiens (Human), UniProt Q00526); assay: KINOMEscan competitive binding assay; conditions: 10 uM
Sequence of CDK3 (Q00526 whole entry): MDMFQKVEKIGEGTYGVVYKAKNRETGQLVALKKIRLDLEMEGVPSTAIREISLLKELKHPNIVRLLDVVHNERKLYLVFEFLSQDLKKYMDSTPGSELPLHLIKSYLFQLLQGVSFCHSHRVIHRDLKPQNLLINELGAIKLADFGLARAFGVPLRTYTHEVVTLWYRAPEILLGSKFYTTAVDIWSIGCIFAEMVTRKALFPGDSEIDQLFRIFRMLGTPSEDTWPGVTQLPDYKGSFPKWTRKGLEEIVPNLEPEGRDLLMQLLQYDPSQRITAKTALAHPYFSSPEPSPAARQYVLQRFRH
Excerpt: as §1

[5] = molecular target: CDK5 (Homo sapiens (Human), UniProt Q00535); assay: KINOMEscan competitive binding assay; conditions: 10 uM
Excerpt: as §1

[6] = molecular target: CDK9 (Homo sapiens (Human), UniProt P50750); assay: KINOMEscan competitive binding assay; conditions: 10 uM
Excerpt: as §1

[7] = molecular target: CLK2 (Homo sapiens (Human), UniProt P49760); assay: KINOMEscan competitive binding assay; conditions: 10 uM
Excerpt: as §1

[8] = molecular target: EPHA2 (Homo sapiens (Human), UniProt P29317); assay: KINOMEscan competitive binding assay; conditions: 10 uM
Excerpt: as §1

[9] = molecular target: EPHB4 (Homo sapiens (Human), UniProt P54760); assay: KINOMEscan competitive binding assay; conditions: 10 uM
Sequence of EPHB4 (P54760 16-987): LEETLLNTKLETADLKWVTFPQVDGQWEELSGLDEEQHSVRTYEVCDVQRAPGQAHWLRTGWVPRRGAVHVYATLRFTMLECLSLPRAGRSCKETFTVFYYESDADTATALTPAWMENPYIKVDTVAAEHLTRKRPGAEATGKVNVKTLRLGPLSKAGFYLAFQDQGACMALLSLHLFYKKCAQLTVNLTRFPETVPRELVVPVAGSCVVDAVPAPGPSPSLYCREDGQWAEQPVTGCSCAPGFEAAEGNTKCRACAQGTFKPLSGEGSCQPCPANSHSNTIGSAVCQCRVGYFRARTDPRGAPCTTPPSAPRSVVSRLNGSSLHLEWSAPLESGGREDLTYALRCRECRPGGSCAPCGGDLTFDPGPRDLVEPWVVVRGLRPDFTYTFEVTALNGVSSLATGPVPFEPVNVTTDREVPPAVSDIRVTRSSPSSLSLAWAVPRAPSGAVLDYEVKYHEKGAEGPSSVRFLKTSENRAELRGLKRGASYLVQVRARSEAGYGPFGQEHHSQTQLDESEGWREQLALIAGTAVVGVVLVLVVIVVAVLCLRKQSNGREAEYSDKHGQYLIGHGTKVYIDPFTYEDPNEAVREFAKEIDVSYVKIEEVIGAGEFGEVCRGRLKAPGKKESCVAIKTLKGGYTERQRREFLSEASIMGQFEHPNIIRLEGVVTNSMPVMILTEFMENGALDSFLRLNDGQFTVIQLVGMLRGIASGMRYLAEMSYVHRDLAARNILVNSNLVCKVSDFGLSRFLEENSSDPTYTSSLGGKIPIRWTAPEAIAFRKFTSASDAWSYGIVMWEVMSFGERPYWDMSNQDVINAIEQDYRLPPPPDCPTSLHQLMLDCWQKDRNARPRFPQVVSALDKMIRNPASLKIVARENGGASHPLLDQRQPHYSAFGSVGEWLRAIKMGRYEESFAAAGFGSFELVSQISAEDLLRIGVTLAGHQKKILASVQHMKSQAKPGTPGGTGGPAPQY
Excerpt: as §1

[10] = molecular target: FLT1 (Homo sapiens (Human), UniProt P17948); assay: KINOMEscan competitive binding assay; conditions: 10 uM
Excerpt: as §1

[11] = molecular target: FLT3(D835H) (Homo sapiens (Human), UniProt P36888, D835H); assay: KINOMEscan competitive binding assay; conditions: 10 uM
Excerpt: as §1

[12] = system: FLT3(ITD); assay: KINOMEscan competitive binding assay; conditions: 10 uM
Excerpt: as §1

[13] = molecular target: FLT3(N841I) (Homo sapiens (Human), UniProt P36888, N841I); assay: KINOMEscan competitive binding assay; conditions: 10 uM
Excerpt: as §1

[14] = molecular target: FLT4 (Homo sapiens (Human), UniProt P35916); assay: KINOMEscan competitive binding assay; conditions: 10 uM
Excerpt: as §1

[15] = molecular target: GSK3B (Homo sapiens (Human), UniProt P49841); assay: KINOMEscan competitive binding assay; conditions: 10 uM
Excerpt: as §1

[16] = molecular target: IGF1R (Homo sapiens (Human), UniProt P08069); assay: KINOMEscan competitive binding assay; conditions: 10 uM
Sequence of IGF1R (P08069 31-1367): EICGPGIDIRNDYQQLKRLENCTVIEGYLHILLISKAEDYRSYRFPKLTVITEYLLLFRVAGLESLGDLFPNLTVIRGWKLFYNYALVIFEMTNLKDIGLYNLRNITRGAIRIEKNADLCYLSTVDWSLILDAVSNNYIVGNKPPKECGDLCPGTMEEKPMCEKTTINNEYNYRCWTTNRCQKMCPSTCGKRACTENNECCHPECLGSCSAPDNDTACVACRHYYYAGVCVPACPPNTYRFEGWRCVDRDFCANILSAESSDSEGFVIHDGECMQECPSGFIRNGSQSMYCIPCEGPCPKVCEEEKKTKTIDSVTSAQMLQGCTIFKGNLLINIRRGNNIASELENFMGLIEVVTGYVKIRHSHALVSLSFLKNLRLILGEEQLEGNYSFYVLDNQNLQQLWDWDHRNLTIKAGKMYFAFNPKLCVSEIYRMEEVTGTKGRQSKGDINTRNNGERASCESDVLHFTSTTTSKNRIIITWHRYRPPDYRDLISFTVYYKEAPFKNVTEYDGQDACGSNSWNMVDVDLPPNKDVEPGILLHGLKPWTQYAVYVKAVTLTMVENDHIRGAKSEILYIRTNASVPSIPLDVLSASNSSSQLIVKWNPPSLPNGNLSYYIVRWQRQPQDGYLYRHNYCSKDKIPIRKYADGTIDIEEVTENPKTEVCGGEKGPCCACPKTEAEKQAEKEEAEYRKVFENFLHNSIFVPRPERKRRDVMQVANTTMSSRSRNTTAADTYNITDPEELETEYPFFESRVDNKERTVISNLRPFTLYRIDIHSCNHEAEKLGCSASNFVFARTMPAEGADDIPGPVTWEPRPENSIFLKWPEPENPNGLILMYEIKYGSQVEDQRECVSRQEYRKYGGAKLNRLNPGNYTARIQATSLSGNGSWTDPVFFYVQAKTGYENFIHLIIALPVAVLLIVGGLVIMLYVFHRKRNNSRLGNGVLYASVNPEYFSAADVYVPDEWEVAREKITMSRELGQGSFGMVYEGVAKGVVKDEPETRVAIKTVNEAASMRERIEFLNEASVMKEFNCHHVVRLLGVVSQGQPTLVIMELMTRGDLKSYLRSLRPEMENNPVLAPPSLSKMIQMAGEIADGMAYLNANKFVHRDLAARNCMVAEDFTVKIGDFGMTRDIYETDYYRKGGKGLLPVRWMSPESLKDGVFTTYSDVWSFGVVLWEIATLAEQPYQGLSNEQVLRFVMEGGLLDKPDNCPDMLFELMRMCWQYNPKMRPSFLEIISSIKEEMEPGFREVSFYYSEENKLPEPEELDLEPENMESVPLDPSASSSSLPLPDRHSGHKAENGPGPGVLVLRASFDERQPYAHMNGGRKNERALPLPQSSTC
Excerpt: as §1

[17] = molecular target: JNK1 (Homo sapiens (Human), UniProt P45983); assay: KINOMEscan competitive binding assay; conditions: 10 uM
Excerpt: as §1

[18] = molecular target: KIT(V559D) (Homo sapiens (Human), UniProt P10721, V559D); assay: KINOMEscan competitive binding assay; conditions: 10 uM
Excerpt: as §1

[19] = molecular target: KIT(V559D, T670I) (Homo sapiens (Human), UniProt P10721, T670I/V559D); assay: KINOMEscan competitive binding assay; conditions: 10 uM
Excerpt: as §1

[20] = molecular target: LIMK2 (Homo sapiens (Human), UniProt P53671); assay: KINOMEscan competitive binding assay; conditions: 10 uM
Sequence of LIMK2 (P53671 whole entry): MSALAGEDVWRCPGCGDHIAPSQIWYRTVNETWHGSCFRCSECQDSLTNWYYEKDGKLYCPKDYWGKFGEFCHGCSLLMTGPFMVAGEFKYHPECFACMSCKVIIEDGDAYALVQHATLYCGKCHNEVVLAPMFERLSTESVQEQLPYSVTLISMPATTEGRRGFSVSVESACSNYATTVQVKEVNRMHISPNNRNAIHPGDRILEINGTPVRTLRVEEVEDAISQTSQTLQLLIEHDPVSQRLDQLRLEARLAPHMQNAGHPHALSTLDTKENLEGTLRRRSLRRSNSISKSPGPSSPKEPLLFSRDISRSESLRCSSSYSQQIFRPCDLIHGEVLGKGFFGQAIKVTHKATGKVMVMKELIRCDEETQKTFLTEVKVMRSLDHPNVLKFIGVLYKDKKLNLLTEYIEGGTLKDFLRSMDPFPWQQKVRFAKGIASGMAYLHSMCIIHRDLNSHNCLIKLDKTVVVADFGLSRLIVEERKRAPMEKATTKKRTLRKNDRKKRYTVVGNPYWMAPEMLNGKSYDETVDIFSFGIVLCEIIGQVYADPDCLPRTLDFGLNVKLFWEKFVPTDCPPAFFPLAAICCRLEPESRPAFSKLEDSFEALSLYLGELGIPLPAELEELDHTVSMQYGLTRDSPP
Excerpt: as §1

[21] = molecular target: LKB1 (Homo sapiens (Human), UniProt Q15831); assay: KINOMEscan competitive binding assay; conditions: 10 uM
Excerpt: as §1

[22] = molecular target: MET (Homo sapiens (Human), UniProt P08581); assay: KINOMEscan competitive binding assay; conditions: 10 uM
Excerpt: as §1

[23] = molecular target: PAK4 (Homo sapiens (Human), UniProt O96013); assay: KINOMEscan competitive binding assay; conditions: 10 uM
Excerpt: as §1

[24] = molecular target: PRKCD (Homo sapiens (Human), UniProt Q05655); assay: KINOMEscan competitive binding assay; conditions: 10 uM
Excerpt: as §1

[25] = molecular target: RIOK3 (Homo sapiens (Human), UniProt O14730); assay: KINOMEscan competitive binding assay; conditions: 10 uM
Excerpt: as §1

[26] = molecular target: RIPK1 (Homo sapiens (Human), UniProt Q13546); assay: KINOMEscan competitive binding assay; conditions: 10 uM
Excerpt: as §1

[27] = molecular target: TIE1 (Homo sapiens (Human), UniProt P35590); assay: KINOMEscan competitive binding assay; conditions: 10 uM
Sequence of TIE1 (P35590 22-1138): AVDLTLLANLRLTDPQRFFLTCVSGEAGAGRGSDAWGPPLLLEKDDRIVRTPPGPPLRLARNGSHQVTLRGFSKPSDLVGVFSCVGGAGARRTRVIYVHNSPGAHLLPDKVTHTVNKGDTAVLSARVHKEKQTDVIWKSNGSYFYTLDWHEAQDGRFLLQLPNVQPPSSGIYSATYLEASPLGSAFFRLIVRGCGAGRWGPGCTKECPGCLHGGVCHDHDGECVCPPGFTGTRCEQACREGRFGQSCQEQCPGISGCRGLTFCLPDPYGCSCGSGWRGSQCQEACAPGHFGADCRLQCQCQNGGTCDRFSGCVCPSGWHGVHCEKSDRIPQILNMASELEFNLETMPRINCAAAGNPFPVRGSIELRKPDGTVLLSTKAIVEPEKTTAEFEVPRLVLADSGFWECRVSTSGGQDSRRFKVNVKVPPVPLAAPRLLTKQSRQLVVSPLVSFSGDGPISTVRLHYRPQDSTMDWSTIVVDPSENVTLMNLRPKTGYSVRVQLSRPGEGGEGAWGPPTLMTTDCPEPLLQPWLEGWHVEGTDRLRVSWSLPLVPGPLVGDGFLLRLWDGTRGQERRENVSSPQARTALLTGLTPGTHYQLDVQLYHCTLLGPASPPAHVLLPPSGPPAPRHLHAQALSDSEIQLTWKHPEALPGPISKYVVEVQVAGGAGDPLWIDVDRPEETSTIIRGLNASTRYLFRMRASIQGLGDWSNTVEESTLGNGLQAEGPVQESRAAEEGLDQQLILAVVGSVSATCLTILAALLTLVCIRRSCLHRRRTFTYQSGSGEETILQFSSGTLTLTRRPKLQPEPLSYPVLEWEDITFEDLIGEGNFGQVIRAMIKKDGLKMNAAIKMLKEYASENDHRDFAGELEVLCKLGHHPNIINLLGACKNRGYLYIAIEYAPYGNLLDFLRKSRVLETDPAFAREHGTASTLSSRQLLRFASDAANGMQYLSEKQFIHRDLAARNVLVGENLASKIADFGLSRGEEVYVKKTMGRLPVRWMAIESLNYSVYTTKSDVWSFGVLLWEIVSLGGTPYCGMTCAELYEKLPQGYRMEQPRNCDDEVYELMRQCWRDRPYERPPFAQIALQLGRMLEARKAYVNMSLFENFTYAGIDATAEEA
Excerpt: as §1

[28] = molecular target: TIE2 (Homo sapiens (Human), UniProt Q02763); assay: KINOMEscan competitive binding assay; conditions: 10 uM
Excerpt: as §1

[29] = molecular target: TRKA (Homo sapiens (Human), UniProt P04629); assay: KINOMEscan competitive binding assay; conditions: 10 uM
Excerpt: as §1

[30] = molecular target: CDC2L1 (Homo sapiens (Human), UniProt P21127); assay: KINOMEscan competitive binding assay; conditions: 10 uM
[31] = system: 1205Lu; assay: Tumor cell viability; type: cell-based, human; conditions: Melanoma 1205Lu, B-RAF V600E
[32] = system: XPA1-RFP; assay: Tumor cell viability; type: cell-based, human; conditions: Pancreatic AC XPA1-RFP, K-Ras
[33] = molecular target: B-RAF/C-RAF dimerization (Homo sapiens (Human), UniProt P15056); assay: B-RAF/C-RAF dimerization in XPA-1 pancreatic cancer cells (immunoprecipitation/Western); type: cell-based; conditions: XPA-1 cells
[34] = system: 1205 Lu melanoma cells; assay: 1205 Lu melanoma subcutaneous xenograft; type: in vivo, mice; conditions: 50 mg/kg, bid, ip for 2 weeks
Method: Human 1205 Lu melanoma cells, which express BRAF V600E, were subcutaneously implanted into the flank of 6-8 week old female Nu/Nu mice. The tumor cells were trypsinized and resuspendend in 1:1 PBS:growth factor depeleted Matrigel (BD Biosciences) and […] containing 1×10^6 cells was injected into the flank. An excess of mice bearing tumors were utilized and groups of 6 animals were chosen based on the symmetry of the tumor and randomized to give each group an average of 50 mm^3 (day 10). […] The vehicle was 10% HS-15 (known as Solutol, BASF, Inc.) in 3.33% dextrose. Tumor growth was monitored by measuring the tumor length and width with precision calipers every 3 days and calculating tumor volume using the following formula: Tumor volume=0.5*(length)*(width)^2, provided the smaller measurement was utilized as the length.

`CSc1nc(N)cc(Oc2ccc(-c3nnc(Nc4cccc(C(F)(F)F)c4)[nH]3)cc2)n1` [Compound 6] was tested, and the “% Control” value [1] was 70%, the “% Control” value [2] was 97% and the “% Control” value [3] was 98%. The “% Control” value [4] was 91%, the “% Control” value [5] was 88% and the “% Control” value [6] was 100%. The “% Control” value [7] was 84%, the “% Control” value [8] was 100% and the “% Control” value [9] was 94%. The “% Control” value [10] was 81%, the “% Control” value [11] was 17% and the “% Control” value [12] was 3.1%. The “% Control” value [13] was 3.1%, the “% Control” value [14] was 100% and the “% Control” value [15] was 90%. For the same compound, the “% Control” value [16] was 100%, the “% Control” value [17] was 98% and the “% Control” value [18] was 0.1%. The “% Control” value [19] was 56%, the “% Control” value [20] was 72% and the “% Control” value [21] was 100%. The “% Control” value [22] was 94%, the “% Control” value [23] was 100% and the “% Control” value [24] was 74%. The “% Control” value [25] was 100%, the “% Control” value [26] was 84% and the “% Control” value [27] was 76%. For the same compound, the “% Control” value [28] was 88%, the “% Control” value [29] was 64% and the “% Control” value [30] was 70%. The EC50 [31] was 830 nM, the EC50 [32] was 280 nM and the “RAF dimerization and pS338-CRAF” value [33] was “prevent RAF dimerization and pS338-CRAF”. The melanoma tumor growth [34] was “suppresses melanoma tumor growth in vivo”.
